From ChEMBL document CHEMBL4616634, “4β-Hydroxywithanolide E from Goldenberry (Whole Fruits of Physalis peruviana L.) as a Promising Agent against Chronic Obstructive Pulmonary Disease” (J Nat Prod, 2020)
The source made the active and inactive calls.

Key:
[1] = test system: RAW264.7; experiment: Inhibition of LPS-induced MMP-9 mRNA expression in mouse RAW264.7 cells at 0.5 to 4 uM preincubated for 1 hr followed by LPS-stimulation and measured after 6 hrs by qRT-PCR analysis; type: functional, cell-based
[2] = target: Transcription factor p65 (Mus musculus) (UniProt Q04207); experiment: Inhibition of LPS-induced NFkappaB p65 nucleus translocation in mouse RAW264.7 cells at 2 uM pre-incubated for 1 hr followed by LPS-stimulation and measured after 1 hr by immunoblot analysis; type: cell-based
[3] = target: T1, Nuclear factor erythroid 2-related factor 2 (Mus musculus) (UniProt Q60795); experiment: Activation of Nrf2 in mouse Hepa1c1c7 cells assessed as increase in quinone reductase activity at 3.12 uM incubated for 24 hrs by MTT based assay; type: cell-based
T1 sequence (whole entry): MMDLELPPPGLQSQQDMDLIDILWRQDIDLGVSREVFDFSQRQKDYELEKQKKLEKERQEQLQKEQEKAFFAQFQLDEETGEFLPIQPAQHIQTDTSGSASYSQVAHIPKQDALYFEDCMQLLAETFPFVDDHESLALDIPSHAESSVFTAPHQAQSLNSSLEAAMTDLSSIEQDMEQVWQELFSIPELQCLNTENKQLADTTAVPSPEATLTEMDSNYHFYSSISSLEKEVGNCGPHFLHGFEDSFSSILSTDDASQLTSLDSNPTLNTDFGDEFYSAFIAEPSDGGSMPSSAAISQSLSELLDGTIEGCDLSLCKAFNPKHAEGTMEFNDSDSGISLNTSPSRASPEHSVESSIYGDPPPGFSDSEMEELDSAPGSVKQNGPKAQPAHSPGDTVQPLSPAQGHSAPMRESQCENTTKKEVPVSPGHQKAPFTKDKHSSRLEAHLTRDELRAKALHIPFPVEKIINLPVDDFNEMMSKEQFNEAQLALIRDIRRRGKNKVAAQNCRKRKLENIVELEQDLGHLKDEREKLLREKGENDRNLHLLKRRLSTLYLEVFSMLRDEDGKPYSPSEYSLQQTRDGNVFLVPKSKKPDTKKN

[4] = target: T2, Nuclear factor erythroid 2-related factor 2 (Homo sapiens) (UniProt Q16236); experiment: Activation of Nrf2 in human BEAS2B cells assessed as increase in KEAP1 protein expression at 0.25 to 2 uM incubated for 12 hrs by immunoblot analysis; type: cell-based
T2 sequence (whole entry): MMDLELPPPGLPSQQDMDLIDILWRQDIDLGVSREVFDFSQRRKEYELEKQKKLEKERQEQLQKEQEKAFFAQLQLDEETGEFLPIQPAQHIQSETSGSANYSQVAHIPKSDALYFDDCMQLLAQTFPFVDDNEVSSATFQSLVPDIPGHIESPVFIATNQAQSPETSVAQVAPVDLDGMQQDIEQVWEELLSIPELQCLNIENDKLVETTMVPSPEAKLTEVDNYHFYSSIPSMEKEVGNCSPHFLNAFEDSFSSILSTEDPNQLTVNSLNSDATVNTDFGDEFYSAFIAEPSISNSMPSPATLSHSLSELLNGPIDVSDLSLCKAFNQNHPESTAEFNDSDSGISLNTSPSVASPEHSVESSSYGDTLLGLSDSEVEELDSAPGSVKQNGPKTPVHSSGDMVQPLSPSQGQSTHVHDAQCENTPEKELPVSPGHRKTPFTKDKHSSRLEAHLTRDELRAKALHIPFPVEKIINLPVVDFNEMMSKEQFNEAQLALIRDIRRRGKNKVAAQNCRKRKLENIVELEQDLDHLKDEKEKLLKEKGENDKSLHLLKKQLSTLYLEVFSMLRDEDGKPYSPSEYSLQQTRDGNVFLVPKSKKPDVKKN

[5] = target: T1, Nuclear factor erythroid 2-related factor 2 (Mus musculus); experiment: Activation of Nrf2 in mouse Hepa1c1c7 cells assessed as increase in quinone reductase activity incubated for 24 hrs by MTT based assay; type: cell-based
[6] = test system: Mus musculus; experiment: Antiinflammatory activity in C57BL/6 mouse model of CS-induced pulmonary injury assessed as reduction in goblet cell hyperplasia in perivascular areas in lungs at 2 to 4 mg/kg, ip for 5 days by hematoxylin and eosin staining based fluorescence microscopic analysis; type: functional, organism-based
[7] = target: T2, Nuclear factor erythroid 2-related factor 2 (Homo sapiens); experiment: Stabilization of Nrf2 in human BEAS2B cells harboring (HA)-ubiquitin assessed as suppression of Nrf2 ubiquitination at 1 uM after 8 hrs in presence of MG132 by immunoblot analysis; type: cell-based
[8] = target: T2, Nuclear factor erythroid 2-related factor 2 (Homo sapiens); experiment: Activation of Nrf2 in human BEAS2B cells assessed as increase in Nrf2 protein expression at 1 uM incubated for 8 hrs by immunoblot analysis; type: cell-based
[9] = test system: RAW264.7; experiment: Inhibition of LPS-induced COX2 mRNA expression in mouse RAW264.7 cells at 0.5 to 4 uM preincubated for 1 hr followed by LPS-stimulation and measured after 6 hrs by qRT-PCR analysis; type: functional, cell-based
[10] = test system: RAW264.7; experiment: Inhibition of LPS-induced NFkappaB activation in mouse RAW264.7 cells pre-incubated for 1 hr followed by LPS-stimulation and measured after 16 hrs by dual luciferase reporter gene assay; type: cell-based
[11] = test system: RAW264.7; experiment: Cytotoxicity against mouse RAW264.7 cells assessed as reduction in cell viability < 6.25 uM after 24 hrs by MTT assay; type: cell-based; conditions: raw264.7, 24 h
[12] = test system: Mus musculus; experiment: Antiinflammatory activity in C57BL/6 mouse model of CS-induced pulmonary injury assessed as reduction in goblet cell hyperplasia in peribronchial in lungs at 2 to 4 mg/kg, ip for 5 days by hematoxylin and eosin staining based fluorescence microscopic analysis; type: functional, organism-based
[13] = test system: Mus musculus; experiment: Antiinflammatory activity in C57BL/6 mouse model of CS-induced pulmonary injury assessed as reduction in hyperplasia of pneumo-cytes in lungs at 2 to 4 mg/kg, ip for 5 days by hematoxylin and eosin staining based fluorescence microscopic analysis; type: functional, organism-based
[14] = test system: Mus musculus; experiment: Antiinflammatory activity in C57BL/6 mouse model of CS-induced pulmonary injury assessed as reduction in IL-1beta protein expression in lungs at 2 to 4 mg/kg, ip for 5 days by ELISA; type: functional, organism-based
[15] = test system: Mus musculus; experiment: Antiinflammatory activity in C57BL/6 mouse model of CS-induced pulmonary injury assessed as reduction in 8-oxo-dG in lungs at 2 to 4 mg/kg, ip for 5 days by ELISA; type: functional, organism-based
[16] = target: T2, Nuclear factor erythroid 2-related factor 2 (Homo sapiens); experiment: Activation of Nrf2 in human BEAS2B cells assessed as increase in Nrf2 mRNA expression at 0.5 to 2 uM incubated for 24 hrs by qRT-PCR analysis; type: cell-based
[17] = test system: BEAS-2B; experiment: Antioxidant activity in human BEAS2B cells assessed as increase in GSH level incubated for 24 hrs; type: functional, cell-based
[18] = test system: BEAS-2B; experiment: Cytotoxicity against human BEAS2B cells assessed as decrease in cell viability at < 12.5 uM after 24 hrs by MTT assay; type: cell-based
[19] = target: T2, Nuclear factor erythroid 2-related factor 2 (Homo sapiens); experiment: Activation of Nrf2 in human MDA-MB-231 cells assessed as increase in GCLM protein level at 0.5 uM incubated for 16 hrs by immunoblot analysis; type: cell-based
[20] = target: T2, Nuclear factor erythroid 2-related factor 2 (Homo sapiens); experiment: Activation of Nrf2 in human MDA-MB-231 cells assessed as increase in Nrf2 protein level at 0.5 uM incubated for 16 hrs by immunoblot analysis; type: cell-based
[21] = test system: Mus musculus; experiment: Antioxidant Activity in C57BL/6 mouse model of CS-induced pulmonary injury assessed as increase in SOD level in serum at 2 to 4 mg/kg, ip for 5 days; type: functional, organism-based

Sequence of Transcription factor p65 (Mus musculus) (Q04207 whole entry): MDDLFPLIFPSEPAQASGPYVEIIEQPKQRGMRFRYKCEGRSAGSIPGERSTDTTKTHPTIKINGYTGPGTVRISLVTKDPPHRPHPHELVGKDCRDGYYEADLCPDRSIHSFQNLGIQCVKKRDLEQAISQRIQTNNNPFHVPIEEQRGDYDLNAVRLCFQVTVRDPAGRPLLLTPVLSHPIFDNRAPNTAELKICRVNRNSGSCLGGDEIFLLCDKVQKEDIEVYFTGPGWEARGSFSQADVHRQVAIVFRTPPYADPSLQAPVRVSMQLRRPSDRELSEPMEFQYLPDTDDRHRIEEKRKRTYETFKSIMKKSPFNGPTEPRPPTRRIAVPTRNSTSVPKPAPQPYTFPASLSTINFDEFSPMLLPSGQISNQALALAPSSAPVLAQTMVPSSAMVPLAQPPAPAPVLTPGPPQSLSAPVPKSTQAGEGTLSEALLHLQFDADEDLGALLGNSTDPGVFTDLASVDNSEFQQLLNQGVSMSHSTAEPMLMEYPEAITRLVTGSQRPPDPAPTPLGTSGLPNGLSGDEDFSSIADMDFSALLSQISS

CC1=C(C)C(=O)O[C@H]([C@](C)(O)[C@]2(O)CC[C@@]3(O)[C@@H]4C[C@H]5O[C@]56[C@@H](O)C=CC(=O)[C@]6(C)[C@H]4CC[C@]23C)C1
Non-Toxic: Activity [11] | Activity [18]
inactive: Activity [4]
active: inhibition [1] | inhibition [2] | Activity [5] Dose-dependent effect | Activity [6] | Activity [7] | Activity [8] | inhibition [9] | inhibition [10] Dose-dependent effect | Activity [12] | Activity [13] | Activity [14] | Activity [15] | Activity [16] | Activity [17] | Activity [19] | Activity [20] | Activity [21]
2.58: fold change (FC) [3]
